Patent publication US7776922B2, “Substituted [(phenylethanoyl)amino]benzamides” (Bayer Schering Pharma Aktiengesellschaft, priority 2004, dated 2010)

Target: T1, human IL8B receptor (Homo sapiens, UniProt P25025)
T1 construct: expressed in transfected cells; host or cells: CHO cells with mitochondrially localized aequorin, co-transfected with G-alpha-16
T1 sequence (P25025 1-360): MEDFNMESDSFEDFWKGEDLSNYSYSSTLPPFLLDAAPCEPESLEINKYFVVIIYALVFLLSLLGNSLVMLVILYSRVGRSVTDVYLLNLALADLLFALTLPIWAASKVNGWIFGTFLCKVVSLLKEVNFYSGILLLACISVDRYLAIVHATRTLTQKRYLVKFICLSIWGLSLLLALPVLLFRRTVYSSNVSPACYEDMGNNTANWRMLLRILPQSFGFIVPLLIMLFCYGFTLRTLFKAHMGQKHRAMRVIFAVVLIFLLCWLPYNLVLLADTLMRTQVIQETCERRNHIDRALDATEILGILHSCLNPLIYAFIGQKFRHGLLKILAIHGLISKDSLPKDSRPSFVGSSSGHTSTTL
Experiment: Functional reporter assay for IL8B receptor antagonists (aequorin Ca2+ bioluminescence in transfected CHO cells)
Assay type: cell-based
Settings: CHO cells with mitochondrially localized aequorin, human IL8B receptor and G-alpha-16; inhibition of IL8-induced Ca2+ transient
Description: Functional Reporter Assay for High Throughput Screening of IL8B Receptor Antagonists
CHO cells with mitochondrially localized aequorin are stably transfected with the human IL8B receptor and the G-alpha-16 protein. Activation of the IL8B receptor with IL8 or an endogenous P2Y receptor with ATP leads to Ca^2+ release. This intracellular Ca^2+ transient can be detected by bioluminescence with mitochondrially localized aequorin. IL8-induced Ca^2+ transients are inhibited by IL8B receptor antagonists.
2000 cells in 25 μl of complete medium with 10% FCS per well of a 384-well multititer plate are incubated at 37° C. and 5% CO2 for 24 h. After removal of the medium, 30 μl of an 11.8 μM coelenterazine solution in 2 mM Ca-Tyrode are added, and the cells are incubated at 37° C. in 5% CO2 for a further 4 hours. 10 μl of test substance in 2 mM Ca-Tyrode/0.1% BSA are added, and the cells are incubated at room temperature for 5 minutes. The IL8B receptor is activated by adding 25 μl of a 0.78-2.6 nM IL8 solution in 2 mM Ca-Tyrode/0.1% BSA, or the endogenous P2Y receptor is activated by adding 25 μl of a 7.8-26 μM ATP solution in 2 mM Ca-Tyrode. The bioluminescence is recorded at the same time. IC50 values are calculated from dose-response plots using the Marquardt-Levenberg fit (Table A).

Row | SMILES | IC50
1 | CCC(C(=O)Nc1ccc(-c2cc3ccccc3s2)c(C(N)=O)c1)c1nccs1 (stereo not shown) [Example 26, 2-(1-Benzothien-2-yl)-5-{[2-(1,3-thiazol-2-yl)butanoyl]amino}benzamide] | 82 nM
2 | CCC(C(=O)Nc1ccc(-c2ccc(-c3ccccc3)cc2)c(C(N)=O)c1)c1cccs1 (stereo not shown) [Example 29, 4-{[2-(2-Thienyl)butanoyl]amino}-1,1′:4′,1″-terphenyl-2-carboxamide] | 92 nM
3 | CCC(C(=O)Nc1ccc(-c2cc3ccccc3s2)c(C(N)=O)c1)c1cccc(F)c1 (stereo not shown) [Example 30, 2-(1-Benzothien-2-yl)-5-{[2-(3-fluorophenyl)butanoyl]amino}benzamide] | 77 nM
4 | CCC(C(=O)Nc1ccc(-c2cc3ccccc3s2)c(C(N)=O)c1)c1ccccc1 (single isomer, unassigned) [Example 1-2, 2-(1-Benzothien-2-yl)-5-[(2-phenylbutanoyl)amino]benzamide] | 100 nM
5 | CCOc1ccc2cc(-c3ccc(NC(=O)C(CC)c4ccccc4)cc3C(N)=O)ccc2c1 (stereo not shown) [Example 2, 2-(6-Ethoxy-2-naphthyl)-5-[(2-phenylbutanoyl)amino]benzamide] | 200 nM
6 | CCC(C(=O)Nc1ccc(-c2ccc3sccc3c2)c(C(N)=O)c1)c1ccccc1 (single isomer, unassigned) [Example 39-2, 2-(1-Benzothien-5-yl)-5-[(2-phenylbutanoyl)amino]benzamide] | 64 nM
7 | CCC(C(=O)Nc1ccc(-c2cc3ccccc3s2)c(C(N)=O)c1)c1ccc2c(c1)OCCO2 (stereo not shown) [Example 35, 2-(1-Benzothien-2-yl)-5-{[2-(2,3-dihydro-1,4-benzodioxin-6-yl)butanoyl]amino}benzamide] | 74 nM
